How the values were obtained:
CDK6/CyclinD1 = biological target: T1, CDK6/CyclinD1 (Homo sapiens, UniProt Q00534); assay: CDK6/CyclinD1 kinase activity test (LANCE Ultra TR-FRET); assay type: biochemical; conditions: 250 μM ATP, 25° C., 120 minutes; read-out: Enzyme activity data (IC50) CDK6/cyclinD1
T1 construct: purchased Carna
Method: Experimental materials: CDK6/CyclinD1 kinase was purchased from Carna, reaction substrate LANCE Ultra ULight™-4E-BP-1 (Thr37146) Peptide and EU-ANTI-P-4EBP1 (THR37/46) were purchased from PerkinElmer. Nivo Multilabel Analyzer (PerkinElmer).
(§1) Experimental method: preparation of kinase buffer: The components of the buffer include: 50 mM of hydroxyethylpiperazine […] solution with pH 7.5, 1 mM of EDTA, 10 mM of magnesium chloride, 0.01% lauryl polyoxyethylene ether (Brij-35), 2 mM of enzyme dithiothreitol, kinase buffer dilution enzyme, substrate LANCE Ultra ULight™-4E-BP-1 (Thr37146) Peptide, adenosine triphosphate and inhibitor. […] The reaction system was continued at 25° C. for 120 minutes. After the reaction was complete, a mixture of 5 μL of EDTA and 2× LANCE™ Detection Buffer (1:1) was added to each well, and reacted at 25° C. for 5 minutes, after the reaction was complete, 5 μL of LANCE Ultra Eu-anti-P-4E-BP1(Thr37MS) (4 nM) was added to each well, and reacted at 25° C. for 60 minutes, the reaction signal was detected by Nivo instrument according to the principle of time-resolved fluorescence resonance energy transfer.
(§2) Table 1 provides the enzymatic inhibitory activities of the compounds of the present invention on CDK2/CyclinA2, CDK2/CyclinE1, CDK4/CyclinD1, CDK6/CyclinD1, CDK9/CyclinT1.

HCC1806 cells = assay: HCC1806 cell activity test (CyQUANT); assay type: cell-based; conditions: Homo sapiens, 168 h, 7 days, read-out: Antiproliferative activity (IC50) HCC1806
Method: Experimental materials: RPMI-1640 medium, fetal bovine serum, penicillin/streptomycin antibiotics were purchased from Vicente. CyQUANT Cell Proliferation Assays (Cell proliferation assay kit) reagents were purchased from ThermoFisher. The HCC1806 cell line was purchased from Cobioer Biosciences Co., Ltd. Nivo Multilabel Analyzer (PerkinElmer).
Experimental method: HCC1806 cells were seeded in a white 96-well plate, 80 μL of cell suspension per well, which contained 3000 HCC1806 cells. The cell plate was incubated overnight in a carbon dioxide incubator. The compounds to be tested were diluted 5-fold to the 9th concentration with a row gun, that is, from 10 mM to 25.6 nM, and a double-replicate well experiment was set up. 78 μL of medium was added to the middle plate, and then transferred 2 μL per well of the gradient diluted compound to the middle plate according to the corresponding position, mixed well and transferred 20 μL per well to the cell plate. […] After reaching the incubation time, the cell supernatant was removed, and the cell plate was placed in a −80° C. refrigerator for 1 hour, after which 100 μL of Cyquant reagent was added to each well, and a multi-label analyzer was used for reading. Another cell plate was prepared, and the signal value was read as the maximum value (Max value in the equation below) on the day of drug addition to participate in data analysis. […]

CDK4/CyclinD1 = biological target: T2, CDK4/CyclinD1 (Homo sapiens, UniProt P11802); assay: CDK4/CyclinD1 kinase activity test (LANCE Ultra TR-FRET); assay type: biochemical; conditions: 350 μM ATP, 25° C., 120 minutes; read-out: Enzyme activity data (IC50) CDK4/cyclinD1
T2 construct: purchased Invitrogen
Method: Experimental materials: CDK4/CyclinD1 kinase was purchased from Invitrogen, reaction substrate LANCE Ultra ULight™-4E-BP-1 (Thr37146) Peptide and EU-ANTI-P-4EBP1 (THR37/46) were purchased from PerkinElmer. Nivo Multilabel Analyzer (PerkinElmer).
as §1, §2

[1] = Pharmacokinetic evaluation in female Balb/c mice; assay type: in vivo; conditions: mouse, plasma
Method: Healthy adult female Balb/c mice used in this study were purchased from Shanghai Lingchang Biotechnology Co., Ltd.
1.11 mg of the compound to be tested was accurately weighed, 109.8 μL of DMSO was added and vortexed for 1 minute, 109.8 μL of solutol was added and vortexed for 1 minute to obtain a clear solution, then 878 μL of water was added and vortexed for 1 minute to obtain the final solution with a final concentration of 1 mg/mL, the dosing vehicle was 10% DMSO+10% solutol+80% water. The solution in the intravenous injection group was filtered with a 2 μm filter before administration.
1.61 mg of the compound to be tested was accurately weighed, 796 μL of 1% HPMC was added, sonicated at 45° C. for 20 minutes, and stirred for 15 minutes to obtain a homogeneous suspension solution with a final concentration of 2 mg/mL. The dosing vehicle was 1% HPMC.
4 female Balb/c mice were divided into 2 groups according to 2 mice in each group. The first group was given 2 mg/kg of the compound to be tested by intravenous injection; the second group was given 10 mg/kg of the compound to be tested by gavage.
The blood was collected from two animals at each time point by continuous blood collection. 30 μL of whole blood was collected before administration and at 0.0833, 0.25, 0.5, 1, 2 (only gavage group), 4, 6, 8 (only intravenous group), and 24 hours after administration, respectively. The whole blood was placed in an anticoagulant tube, centrifuged at 3200 g for 10 minutes at 4° C., the plasma was prepared and stored at −80° C. Drug concentration in the plasma was determined by LC/MS-MS.

T2 sequence (P11802 whole entry): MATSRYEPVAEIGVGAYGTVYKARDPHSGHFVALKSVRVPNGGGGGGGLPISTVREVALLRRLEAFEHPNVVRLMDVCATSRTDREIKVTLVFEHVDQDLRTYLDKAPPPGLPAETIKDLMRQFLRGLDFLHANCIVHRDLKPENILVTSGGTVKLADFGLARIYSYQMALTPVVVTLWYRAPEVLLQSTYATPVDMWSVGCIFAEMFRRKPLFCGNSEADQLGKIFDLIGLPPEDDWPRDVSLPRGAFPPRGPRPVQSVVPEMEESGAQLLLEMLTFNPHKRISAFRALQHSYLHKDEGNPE
T2 sequence (P24385 whole entry partner): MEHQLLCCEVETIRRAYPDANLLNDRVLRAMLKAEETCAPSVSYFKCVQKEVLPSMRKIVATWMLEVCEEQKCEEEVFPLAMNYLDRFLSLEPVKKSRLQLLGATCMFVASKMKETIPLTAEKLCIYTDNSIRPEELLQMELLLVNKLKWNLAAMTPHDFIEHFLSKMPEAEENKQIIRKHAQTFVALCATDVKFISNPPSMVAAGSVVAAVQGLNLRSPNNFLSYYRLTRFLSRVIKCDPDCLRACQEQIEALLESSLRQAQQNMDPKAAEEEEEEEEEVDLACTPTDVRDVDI
T1 sequence (Q00534 whole entry): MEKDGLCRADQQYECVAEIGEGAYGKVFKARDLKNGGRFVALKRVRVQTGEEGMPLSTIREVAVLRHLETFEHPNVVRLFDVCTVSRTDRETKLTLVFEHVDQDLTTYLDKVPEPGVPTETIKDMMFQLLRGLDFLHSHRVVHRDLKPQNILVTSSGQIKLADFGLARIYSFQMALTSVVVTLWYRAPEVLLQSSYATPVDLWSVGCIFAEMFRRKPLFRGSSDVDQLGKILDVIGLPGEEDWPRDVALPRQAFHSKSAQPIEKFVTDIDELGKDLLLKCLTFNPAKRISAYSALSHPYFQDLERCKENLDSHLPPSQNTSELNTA
T1 sequence (P24385 whole entry partner): as the sequence (P24385 whole entry partner) above

IC50 (CDK6/CyclinD1): 1.5 nM
IC50 (HCC1806 cells): 155 nM
IC50 (CDK4/CyclinD1): 5.9 nM
clearance ([1]; Intravenous Injection: 2 mg/kg, read-out: Clearance Rate Cl): 36.9 mL/min/kg
half-life ([1]; Intravenous Injection: 2 mg/kg, read-out: Half-Life T1/2 (converted)): 16.8 min
bioavailability ([1]; Oral Administration: 10 mg/kg, read-out: Oral Bioavailability F): 31.4%
AUC(0-t) ([1]; Oral Administration: 10 mg/kg, read-out: Oral Exposure AUC0-t): 3.37 µM·h
SMILES: C[C@@]1(O)CCC[C@H]1N1C(=O)CCc2cnc(NC3CCN(S(C)(=O)=O)CC3)nc21 [Compound 1A]

— patent US12679837B2, “Aminopyrimidine compound as CDK2/4/6 triple inhibitor” (CISEN PHARMACEUTICAL CO., LTD, priority 2019, dated 2026)
